Experimental data published in US20260258039A1, “AROMATIC COMPOUND, METHOD FOR PREPARING SAME, AND USE THEREOF IN PREPARATION OF ESTROGEN RECEPTOR DEGRADER” (Hinova Pharmaceuticals Inc., priority 2022, published 2026).
pIC50: −log10 of the molar value. Where two headings read alike, the source gives them in different places.

What was measured:
Format in all cases: cell-based
[1] = molecular target: T1, ER (Homo sapiens, UniProt P03372); assay: Degradation activities on ER (ELISA) in T47D breast cancer cells; settings: for DC50: concentration required to degrade 50% of the target protein
T1 construct: T47D breast cancer cells were subcultured in cell culture medium; endogenous in cells; host or cells: T47D breast cancer cells
T1 sequence (P03372 1-595): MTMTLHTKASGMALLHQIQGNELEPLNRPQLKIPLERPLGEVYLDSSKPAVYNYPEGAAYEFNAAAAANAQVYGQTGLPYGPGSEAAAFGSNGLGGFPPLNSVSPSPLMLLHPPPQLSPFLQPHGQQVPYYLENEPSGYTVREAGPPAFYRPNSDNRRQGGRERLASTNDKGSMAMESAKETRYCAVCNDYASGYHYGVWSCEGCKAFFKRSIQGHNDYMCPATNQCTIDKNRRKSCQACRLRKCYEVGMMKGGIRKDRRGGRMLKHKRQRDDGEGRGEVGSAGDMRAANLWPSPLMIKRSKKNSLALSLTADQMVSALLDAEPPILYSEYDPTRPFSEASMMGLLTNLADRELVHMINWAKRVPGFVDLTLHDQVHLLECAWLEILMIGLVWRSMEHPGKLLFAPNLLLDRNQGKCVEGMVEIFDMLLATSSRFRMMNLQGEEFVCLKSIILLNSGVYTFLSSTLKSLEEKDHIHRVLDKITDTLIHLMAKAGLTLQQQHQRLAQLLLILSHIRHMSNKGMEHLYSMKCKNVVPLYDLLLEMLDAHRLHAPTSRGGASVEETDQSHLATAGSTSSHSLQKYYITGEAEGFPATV
In short: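 Cellular ER degradation ELISA: compound dosed 24 h on T47D cells (2.5×10^4/well, pre-grown 3 days) at six final levels from 100 nM downward. Remaining ER was detected by HRP-TMB absorbance at 450 nm. Dose-response fitting gave DC50 and Dmax, the maximal percentage degraded.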

[2] = molecular target: T1, ER; assay: Degradation activities on ER (Western blotting) in T47D breast cancer cells; settings: 24 h, Western blot
Experimental: T47D breast cancer cells were subcultured in cell culture medium, and the cells in good growth condition were seeded into 6-well plate at 2 mL/well, with 2.5×10^5 cells per well. The cells were incubated overnight in a 37° C. incubator under 5% CO2. The drug was prepared into 10 mM stock solution with dimethyl sulfoxide (DMSO). Prior to use, the stock solution was diluted with DMSO in a ratio of 1:3. […] of the diluted compound was added to the cell culture wells (to ensure a DMSO concentration of 0.1% in the culture system), and each concentration was repeated twice. The plate were gently shaken to mix. Additionally, the negative control wells (containing equal amount of DMSO) and the positive control wells were set up. After 24 hours of culture, the cells were lysed with RIPA cell lysis buffer to extract proteins, and the protein concentration was measured using a BCA kit. The protein loading buffer (5×) was added, and the plate was heated at 100° C. for 5 min. Then, the sample was stored at −20° C. […] of protein collected from each well was loaded onto a polyacrylamide gel for electrophoresis. The protein is transferred from the polyacrylamide gel to a PVDF membrane, blocked with 5% skim milk at room temperature for 1 h, and incubated overnight at 4° C. with primary antibodies Anti-ERα rabbit mAb (CST, Cat #: 8644S) and Anti-GAPDH rabbit mAb (CST, Cat #: 2118L). The membrane was washed three times with TBST solution, with 10 min for each time. The secondary antibody (horseradish peroxidase-labeled goat anti-rabbit IgG) was incubated at room temperature for 2 h, and then the membrane was washed three times with TBST solution, with 10 min for each time. Finally, ECL chromogenic solution was added for color development, and an automatic chemiluminescence instrument was used to take pictures. Images were collected and analyzed.
The degradation activities of the compounds according to the present invention towards ER, as tested by western blotting, are presented in Table 2

[3] = test system: MCF-7 breast cancer cells; assay: Inhibition of proliferation of MCF-7 breast cancer cells (agarose culture, CellTiter-Glo 3D)
Experimental: After 1.6% agarose and 0.7% agarose were sterilized at high temperature, they were cooled to around 50° C., and placed in a 42° C. water bath for later use. MCF-7 breast cancer cells were subcultured in complete cell culture medium, and cells in good growth condition were digested and counted for future use. 50 µL of 1.6% agarose mixed with 2× culture medium at a ratio of 1:1 was spread into the bottom of 96-well plate, and allowed to cool and solidify. 0.7% agarose was mixed with diluted cell suspension in a ratio of 1:1, and then 50 µL of the mixture of gel and cells was added to each well, with 2000 cells for each well; the mixture was allowed to cool and solidify at room temperature. 50 μL of culture medium was added to the plate containing cells, and the plate was placed in a 37° C., 5% CO2 incubator and cultured for 24 h. The drug was prepared into 10 mM stock solution with dimethyl sulfoxide (DMSO). The stock solution was diluted in a ratio of 1:3, to obtain 9 concentration gradients. Then, each concentration of compound solution was further diluted with culture medium in 1:250 (to ensure a DMSO concentration of 0.1% in the culture system). Two replicate wells was set for each concentration. 50 μL of the diluted compound solution was added to the cell culture wells (with final concentrations of 10 μM, 3.3 μM, 1.1 μM, 0.37 μM . . . ). The plate was gently shaken for mixing. Additionally, 3 negative control wells only containing cells and 3 blank control wells only containing culture medium were set up (each of the 6 wells was added with 50 μL of DMSO diluted with culture medium in a ration of 1:250). After 15 days of cultivation, the cell plates and CellTiter-Glo 3D Cell Viability were taken out and equilibrated to room temperature in advance. 80 μL of culture medium were aspirated and discarded from the cell plate, and 120 µL of CellTiter-Glo 3D Cell Viability solution was added to each well. The plates were centrifuged at 1200 rpm/min for 5 min, and then placed in the dark and kept for 25 min. The […] were measured using a multi-function microplate reader. The data were analyzed using the Dose-response-inhibition equation in GraphPad Prism8 software, and the IC50 values were obtained, as shown in Table 3.

[4] = T47D cells, 24 h, ELISA, maximum percentage of target protein degraded, read-out: Dmax
[5] = Homo sapiens, MCF7, 360 h, MCF-7 cells, 15 days of cultivation, read-out: IC50

| Structure (SMILES) | DC50 ([1]; T47D cells, 24 h, ELISA) [nM] | Dmax [1, 4] [%] | pIC50 [3, 5] | also measured |
| --- | --- | --- | --- | --- |
| O=C1CCC(N2Cc3cc(N4CC5(CCN(CC6CCN(c7c(F)cc([C@@H]8c9ccc(O)cc9OC[C@@H]8c8cccc(F)c8F)cc7F)CC6)CC5)C4)ccc3C2=O)C(=O)N1 (stereo partly drawn) [Example 49, 3-(5-(7-((1-(4-((3S, 4R)-3-(2,3-difluorophenyl)-7-hydroxychroman-4-yl)-2,6-difluorophenyl)piperidin-4-yl)methyl)-2,7-diazaspiro[3.5]nonane-2-yl)-1-oxoisoinodolin-2-yl)piperidin-2,6-one] | < 10 |  | > 8.00 |  |
| O=C1CCC(N2Cc3cc(N4CC5(CCN(CC6CCN(c7c(F)cc([C@@H]8c9ccc(O)cc9OC[C@@H]8c8ccccc8F)cc7F)CC6)CC5)C4)ccc3C2=O)C(=O)N1 (stereo partly drawn) [Example 50, 3-(5-(7-((1-(4-((3S,4R)-3-(2-fluorophenyl)-7-hydroxychroman-4-yl)-2,6-difluorophenyl)piperidin-4-yl)methyl)-2,7-diazaspiro[3.5]nonane-2-yl)-1-oxoisoinodolin-2-yl)piperidin-2,6-one] | < 10 |  |  | pIC50 ([3]; MCF-7 cells, 15 days of cultivation, read-out: IC50): > 8.00 |
| O=C1CCC(N2Cc3cc(N4CC5(CN(CC6CCN(c7ccc([C@H]8c9ccc(O)cc9OC[C@H]8c8ccccc8)cc7)CC6)C5)C4)ccc3C2=O)C(=O)N1 (stereo partly drawn) [Example 56, 3-(5-(6-((1-(4-((3R,4S)-7-hydroxyl-3-phenyl-chroman-4-yl)phenyl)piperidin-4-yl)methyl)-2,6-diazaspiro[3.3]heptane-2-yl)-1-oxoisoinodolin-2-yl)piperidin-2,6-one] |  |  |  | Percentage reduction of ER ([2]; compound concentration 1 nM): 59% |
| O=C1CCC(N2Cc3cc(N4CC(N5CCN(c6ccc([C@@H]7c8ccc(O)cc8CC[C@@H]7c7ccccc7)cc6)CC5)C4)ccc3C2=O)C(=O)N1 (stereo partly drawn) [Example 59, 3-(5-(3-(4-(4-((1R,2S)-6-hydroxyl-2-phenyl-1,2,3,4-tetrahydronaphthalen-1-yl)phenyl)piperazine-1-yl)azetidin-1-yl)-1-oxoisoindol-2-yl)piperidin-2,6-dione] |  |  |  | Percentage reduction of ER ([2]; compound concentration 10 nM): 54% |
| O=C1CCC(N2Cc3cc(N4CC5(CCN(CC6CCN(c7ccc([C@@H]8c9ccc(O)cc9OC[C@@H]8c8cccc(F)c8)cc7)CC6)CC5)C4)ccc3C2=O)C(=O)N1 (stereo partly drawn) [Example 60, 3-(5-(7-((1-(4-((3,4-cis)-3-(3-fluorophenyl)-7-hydroxyl-chroman-4-yl)phenyl)piperidin-4-yl)methyl)-2,7-diazaspiro[3.5]nonane-2-yl)-1-oxoisoindol-2-yl)piperidin-2,6-dione] | < 10 |  |  | Dmax ([1]; T47D): 50 to 75%; pIC50 ([3]; Homo sapiens, MCF7, 360 h): > 8.00 |
| O=C1CC[C@@H](N2Cc3cc(N4CC5(CCN(CC6CCN(c7ccc([C@@H]8c9ccc(O)cc9OC[C@@H]8c8c(F)cccc8F)cc7F)CC6)CC5)C4)ccc3C2=O)C(=O)N1 [Example 74, (R)-3-(5-(7-((1-(4-((3S,4R)-3-(2,6-difluorophenyl)-7-hydroxychroman-4-yl)-2-fluorophenyl)piperidin-4-yl)methyl)-2,7-diazaspiro[3.5]nonane-2-yl)-1-oxoisoinodolin-2-yl)piperidin-2,6-dione] | > 100 | < 50 | < 7.30 |  |
| O=C1CCC(N2Cc3cc(N4CC5(CCN(CC6CCN(c7ccc(C8=C(c9c(F)cccc9F)COc9cc(O)ccc98)cc7F)CC6)CC5)C4)ccc3C2=O)C(=O)N1 (centres unmarked) [Example 76, 3-(5-(7-((1-(4-(3-(2,6-difluorophenyl)-7-hydroxyl-2H-chromene-4-yl)-2-fluorophenyl)piperidin-4-yl)methyl)-2,7-diazaspiro[3.5]nonane-2-yl)-1-oxoisoinodolin-2-yl)piperidin-6-dione] | < 10 | > 75 | > 8.00 |  |
| O=C1CCC(N2C(=O)c3ccc(N4CC5(CCN(CC6CCN(c7ccc([C@H]8c9ccc(O)cc9OC[C@H]8c8ccccc8)cc7)CC6)CC5)C4)cc3C2=O)C(=O)N1 (stereo partly drawn) [Example 80, 2-(2,6-dioxopiperidin-3-yl)-5-(7-((1-(4-((3R,4S)-7-hydroxyl-3-phenylchroman-4-yl)phenyl)piperidin-4-yl)methyl)-2,7-diazaspiro[3.5]nonane-2-yl)isoinodolin-1,3-dione] |  |  |  | Percentage reduction of ER ([2]; compound concentration 1 nM): 50% |
| O=C1CCC(N2Cc3cc(N4CC5CN(CC6CCN(c7ccc([C@H]8c9ccc(O)cc9OC[C@H]8c8ccccc8)cc7)CC6)CC5C4)ccc3C2=O)C(=O)N1 (stereo partly drawn) [Example 82, 3-(5-(5-((1-(4-((3R,4S)-7-hydroxyl-3-phenylchroman-4-yl)phenyl)piperidin-4-yl)methyl)hexahydropyrrolo[3,4-c]pyrrole-2(1H)-yl)-1-oxoisoinodolin-2-yl)piperidin-2,6-dione] |  |  |  | Percentage reduction of ER ([2]; compound concentration 10 nM): 49% |

Now from value to compound, other results behind:

| DC50 ([1]; T47D cells, 24 h, ELISA) [nM] | Dmax [1, 4] [%] | pIC50 [3, 5] | Structure (SMILES) | also measured |
| --- | --- | --- | --- | --- |
| < 10 | 50 to 75 |  | O=C1CCC(N2C(=O)c3ccc(N4CCC(CN5CCC6(CC5)CN(c5ccc([C@@H]7c8ccc(O)cc8CC[C@@H]7c7ccccc7)cc5)C6)CC4)cc3C2=O)C(=O)N1 (some centres unmarked) [Example 1] | Percentage reduction of ER ([2]; compound concentration 10 nM): 71% |
| > 100 | < 50 |  | O=C1CCC(N2Cc3cc(N4CCC5(CCN(CC6CCN(c7ccc([C@@H]8c9ccc(O)cc9CC[C@@H]8c8ccccc8)cc7)CC6)C5)C4)ccc3C2=O)C(=O)N1 (stereo partly drawn) [Example 2, 3-(5-(7-((1-(4-((1R,2S)-6-hydroxyl-2-phenyl-1,2,3,4-tetrahydronaphthalen-1-yl)phenyl)piperidin-4-yl)methyl)-2,7-diazaspiro[4.4]nonane-2-yl)-1-oxoisoinodolin-2-yl)piperidin-2,6-dione] | Percentage reduction of ER ([2]; compound concentration 1 nM): 53% |
| < 10 | > 75 | > 8.00 | O=C1CC[C@H](N2Cc3cc(N4CC5(CCN(CC6CCN(c7ccc([C@@H]8c9ccc(O)cc9OC[C@@H]8c8c(F)cccc8F)cc7F)CC6)CC5)C4)ccc3C2=O)C(=O)N1 [Example 75, (S)-3-(5-(7-((1-(4-((3S,4R)-3-(2,6-difluorophenyl)-7-hydroxychroman-4-yl)-2-fluorophenyl)piperidin-4-yl)methyl)-2,7-diazaspiro[3.5]nonane-2-yl)-1-oxoisoinodolin-2-yl)piperidin-2,6-dione] |  |
